# Key:
# [1] = tested on: brain slices derived from a mouse model of tauopathy; details: inhibition of PLDs; cited from earlier work
# ALS iPS-MNs = experiment: AIS (axon initial segment) length by ankyrin G immunostaining; type: cell-based, human; details: data not shown
smiles,measurement,setting,value
"O=C(NCCN1CCC(n2c(=O)[nH]c3ccccc32)CC1)c1cc2cc(F)ccc2[nH]1 [FIPI, 5-fluoro-2-indolyl des-chlorohalopemide]",effect on insoluble tau aggregates,[1],increased insoluble tau aggregates
"C=C(C)[C@H]1CN[C@H](C(=O)O)[C@H]1CC(=O)O [kainate, kainic acid]",effect on shortening of the AIS,ALS iPS-MNs,further exacerbated

# — patent US20180028520A1, “METHODS AND PHARMACEUTICAL COMPOSITIONS FOR TREATMENT OF AMYOTROPHIC LATERAL SCLEROSIS” (priority 2014, published 2018)
